Measurements taken from US5391540A, “Substituted pyridine compounds” (Rohm and Haas Company, priority 1993, dated 1995).

What was measured:
Test in all cases: Pre-emergent herbicidal activity (Table A)
Assay type in all cases: in vivo
Cocklebur = settings: Xanthium strumarium, pre-emergence, Cobu, 11.2 kg/ha, 10-14 days, read-out: herbicidal rating (% inhibition)
Description: (§1) The herbicidal ratings used in Tables A and B were assigned according to a scale based on the percent inhibition of each plant species. The herbicide rating symbols in Tables A and B are defined as follows: […]
(§2) One set of pre-emergent tests was conducted as follows:
(§3) Topsoil was placed in a pan and compacted to a depth of 0.95 to 1.27 cm. from the top of the pan. A predetermined number of seeds of each of several monocotyledonous and dicotyledonous annual plant species and/or vegetative propagules of various perennial plant species were placed on top of the soil. The soil required to level fill a pan after seeding or adding vegetative propagules was weighed into another pan. A known amount of the test compound dissolved or suspended in an organic solvent or water and applied in acetone or water as a carrier was thoroughly mixed with this cover soil, and the herbicide/soil mixture was used as a cover layer for the previously prepared pan.
(§4) The plant species usually regarded as weeds which were utilized in one set of pre-emergent activity tests, the data for which are shown in Table A, are identified by letter headings printed diagonally above the columns according to the following legend: […]

Velvetleaf = settings: Abutilon theophrasti, pre-emergence, Vele, 11.2 kg/ha, 10-14 days, read-out: herbicidal rating (% inhibition)
Description: as §1, §2, §3, §4

Yellow Nutsedge = settings: Cyperus, pre-emergence, Yens, 11.2 kg/ha, 10-14 days, read-out: herbicidal rating (% inhibition)
Description: as §1, §2, §3, §4

Rhizome Johnsongrass = settings: Sorghum halepense, pre-emergence, Rhjg, 11.2 kg/ha, 10-14 days, read-out: herbicidal rating (% inhibition)
Description: as §1, §2, §3, §4

Barnyardgrass = settings: Echinochloa crus-galli, pre-emergence, Bygr, 11.2 kg/ha, 10-14 days, read-out: herbicidal rating (% inhibition)
Description: as §1, §2, §3, §4

Morningglory = settings: Ipomoea, pre-emergence, Mogl, 11.2 kg/ha, 10-14 days, read-out: herbicidal rating (% inhibition)
Description: as §1, §2, §3, §4

Downy Brome = settings: Bromus tectorum, pre-emergence, Dobr, 11.2 kg/ha, 10-14 days, read-out: herbicidal rating (% inhibition)
Description: as §1, §2, §3, §4

Quackgrass = settings: pre-emergence, Rhqg, 11.2 kg/ha, 10-14 days, read-out: herbicidal rating (% inhibition)
Description: as §1, §2, §3, §4

Common Lambsquarters = settings: Chenopodium album, pre-emergence, Colq, 11.2 kg/ha, 10-14 days, read-out: herbicidal rating (% inhibition)
Description: as §1, §2, §3, §4

Pennsylvania Smartweed = settings: pre-emergence, Pesw, 11.2 kg/ha, 10-14 days, read-out: herbicidal rating (% inhibition)
Description: as §1, §2, §3, §4

Canada thistle = settings: Cirsium arvense, pre-emergence, Cath, 11.2 kg/ha, 10-14 days, read-out: herbicidal rating (% inhibition)
Description: as §1, §2, §3, §4

Row | Compound | inhibition at 11200 g/ha (Cocklebur) [%] | inhibition at 11200 g/ha (Velvetleaf) [%] | inhibition at 11200 g/ha (Yellow Nutsedge) [%] | inhibition at 11200 g/ha (Rhizome Johnsongrass) [%] | inhibition at 11200 g/ha (Barnyardgrass) [%] | inhibition at 11200 g/ha (Morningglory) [%] | inhibition at 11200 g/ha (Downy Brome) [%] | inhibition at 11200 g/ha (Quackgrass) [%] | inhibition at 11200 g/ha (Common Lambsquarters) [%] | inhibition at 11200 g/ha (Pennsylvania Smartweed) [%] | inhibition at 11200 g/ha (Canada thistle) [%]
1 | CCOc1nc(C(F)(F)F)c(C(=NC)SC)c(CC(C)C)c1C(=O)OC [Compound 46, 3-pyridinecarboxylic acid, 2-ethoxy-5-[(methylimino)(methylthio)methyl]-4-(2-methylpropyl)-6-(trifluoromethyl)-, methyl ester] | 0 to 24 | 50 to 74 | 0 to 24 | 0 to 24 | 75 to 100 | 75 to 100 | 75 to 100 | 75 to 100 | 75 to 100 | 75 to 100 | 75 to 100
2 | CCOC=Nc1c(C(F)(F)F)nc(OC)c(C(=O)OC)c1CC(C)C [Compound 61, 3-pyridinecarboxylic acid, 5-[(ethoxymethylene)amino]-2-methoxy-4-(2-methylpropyl)-6-(trifluoromethyl)-, methyl ester] | 25 to 49 | 75 to 100 | 0 to 24 | 75 to 100 | 75 to 100 | 75 to 100 | 75 to 100 | 75 to 100 | 75 to 100 | 75 to 100 | 50 to 74
3 | CCOC(=O)c1c(OC)nc(C(F)(F)F)c(C(=O)OC)c1CC(C)C [Compound 4, 3,5-pyridinedicarboxylic acid, 2-methoxy-4-(2-methylpropyl)-6-(trifluoromethyl)-, 3-ethyl 5-methyl ester] | 0 to 24 | 75 to 100 | 25 to 49 | 75 to 100 | 75 to 100 | 75 to 100 | 75 to 100 | 75 to 100 | 75 to 100 | 75 to 100 | 75 to 100
4 | COC(=O)c1c(OC)nc(C(F)(F)F)c(C(=O)OC)c1C1CC1 [Compound 9, 3,5-pyridinedicarboxylic acid, 4-cyclopropy1-2-methoxy-6-(trifluoromethyl)-, dimethyl ester] | 0 to 24 | 75 to 100 | 75 to 100 | 75 to 100 | 75 to 100 | 75 to 100 | 75 to 100 | 75 to 100 | 75 to 100 | 75 to 100 | 75 to 100
5 | COC(=O)c1c(C(F)(F)F)[nH]c(=O)c(C#N)c1CC(C)C [Compound 22, 3-pyridinecarboxylic acid, 5-cyano-1,6-dihydro-4-(2-methylpropyl)-6-oxo-2-(trifluoromethyl)-, methyl ester] | 0 to 24 | 0 to 24 | 0 to 24 | 0 to 24 | 0 to 24 | 0 to 24 | 0 to 24 | 0 to 24 | 0 to 24 | 0 to 24 | 0 to 24
6 | COc1nc(C(F)(F)F)c(C(=O)SC)c(CC(C)C)c1C(=O)SC [Compound 47, 3,5-pyridinedicarbothioic acid, 2-methoxy-4-(2-methylpropyl)-6-(trifluoromethyl)-, S,S,-dimethyl ester] | 25 to 49 | 75 to 100 | 75 to 100 | 75 to 100 | 75 to 100 | 75 to 100 | 75 to 100 | 75 to 100 | 75 to 100 | 75 to 100 | 75 to 100
7 | CCOc1nc(C(F)(F)F)c(C(=O)OC)c(CC(C)C)c1C(=O)OC [Compound 6, 3,5-pyridinedicarboxylic acid, 2-ethoxy-4-(2-methylpropyl)-6-(trifluoromethyl)-, dimethyl ester] | 25 to 49 | 75 to 100 | 25 to 49 | 75 to 100 | 75 to 100 | 75 to 100 |  | 75 to 100 | 75 to 100 | 75 to 100 | 75 to 100
